Data published in patent US11433071B2, “Heterocyclylamines as PI3K inhibitors” (Incyte Corporation, priority 2011, dated 2022).

Target: PI3Kδ (p110δ/p85α) (Homo sapiens (Human), UniProt O00329)
Assay: PI3Kδ scintillation proximity assay (Example A3)
Format: biochemical
Conditions: assay not given
Procedure: [γ-^33P]ATP (10 mCi/mL) was purchased from Perkin-Elmer (Waltham, Mass.). […] PI3Kδ (p110δ/p85α) was purchased from Millipore (Bedford, Mass.). ATP, MgCl2, DTT, EDTA, MOPS and CHAPS were purchased from Sigma-Aldrich (St. Louis, Mo.). Wheat Germ Agglutinin (WGA) YSi SPA Scintillation Beads was purchased from GE healthcare life sciences (Piscataway, N.J.).
The kinase reaction was conducted in polystyrene 384-well matrix white plate from Thermo Fisher Scientific in a final volume of 25 μL. Inhibitors were first diluted serially in DMSO and added to the plate wells before the addition of other reaction components. The final concentration of DMSO in the assay was 0.5%. The PI3K assays were carried out at room temperature in 20 mM MOPS, pH 6.7, 10 mM MgCl2, 5 mM DTT and CHAPS 0.03%. Reactions were initiated by the addition of ATP, the final reaction mixture consisted of 20 μM PIP2, 20 μM ATP, 0.2 μCi [γ-^33P] ATP, 4 nM PI3Kδ. […] 25 mM EDTA, 400 µM ATP. The final concentration of SPA beads was 1.0 mg/mL. After the plate sealing, plates were shaken overnight at room temperature and centrifuged at 1800 rpm for 10 minutes, the radioactivity of the product was determined by scintillation counting on Topcount (Perkin-Elmer). IC50 determination was performed by fitting the curve of percent control activity versus the log of the inhibitor concentration using the GraphPad Prism 3.0 software.

Chain of PI3Kδ (p110δ/p85α) (O00329 whole entry): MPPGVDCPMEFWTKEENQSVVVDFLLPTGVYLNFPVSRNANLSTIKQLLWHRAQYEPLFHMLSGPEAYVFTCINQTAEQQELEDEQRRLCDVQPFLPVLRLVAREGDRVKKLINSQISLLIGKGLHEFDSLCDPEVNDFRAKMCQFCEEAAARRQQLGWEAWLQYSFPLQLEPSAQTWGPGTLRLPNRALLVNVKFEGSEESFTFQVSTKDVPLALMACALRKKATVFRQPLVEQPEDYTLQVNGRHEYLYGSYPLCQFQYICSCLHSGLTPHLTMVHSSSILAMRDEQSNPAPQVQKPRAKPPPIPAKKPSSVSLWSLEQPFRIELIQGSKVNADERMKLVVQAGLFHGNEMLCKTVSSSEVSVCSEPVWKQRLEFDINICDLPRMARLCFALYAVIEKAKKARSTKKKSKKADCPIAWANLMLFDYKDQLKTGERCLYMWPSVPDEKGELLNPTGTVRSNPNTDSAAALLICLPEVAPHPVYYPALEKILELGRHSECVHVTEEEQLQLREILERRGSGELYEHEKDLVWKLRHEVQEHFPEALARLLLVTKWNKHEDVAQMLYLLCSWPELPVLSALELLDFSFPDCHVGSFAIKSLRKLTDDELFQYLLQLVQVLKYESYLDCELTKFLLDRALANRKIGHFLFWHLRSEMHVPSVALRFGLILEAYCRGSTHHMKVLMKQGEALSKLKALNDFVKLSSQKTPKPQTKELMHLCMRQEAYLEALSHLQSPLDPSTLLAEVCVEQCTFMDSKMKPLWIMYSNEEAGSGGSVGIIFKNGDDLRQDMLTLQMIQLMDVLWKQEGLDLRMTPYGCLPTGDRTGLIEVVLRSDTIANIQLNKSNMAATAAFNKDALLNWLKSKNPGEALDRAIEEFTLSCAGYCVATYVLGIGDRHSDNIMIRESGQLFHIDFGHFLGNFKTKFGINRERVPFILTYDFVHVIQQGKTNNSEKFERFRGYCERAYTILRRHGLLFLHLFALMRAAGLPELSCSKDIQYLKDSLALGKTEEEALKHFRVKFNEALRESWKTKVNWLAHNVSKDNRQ
Chain of PI3Kδ (p110δ/p85α) (P27986 whole entry partner): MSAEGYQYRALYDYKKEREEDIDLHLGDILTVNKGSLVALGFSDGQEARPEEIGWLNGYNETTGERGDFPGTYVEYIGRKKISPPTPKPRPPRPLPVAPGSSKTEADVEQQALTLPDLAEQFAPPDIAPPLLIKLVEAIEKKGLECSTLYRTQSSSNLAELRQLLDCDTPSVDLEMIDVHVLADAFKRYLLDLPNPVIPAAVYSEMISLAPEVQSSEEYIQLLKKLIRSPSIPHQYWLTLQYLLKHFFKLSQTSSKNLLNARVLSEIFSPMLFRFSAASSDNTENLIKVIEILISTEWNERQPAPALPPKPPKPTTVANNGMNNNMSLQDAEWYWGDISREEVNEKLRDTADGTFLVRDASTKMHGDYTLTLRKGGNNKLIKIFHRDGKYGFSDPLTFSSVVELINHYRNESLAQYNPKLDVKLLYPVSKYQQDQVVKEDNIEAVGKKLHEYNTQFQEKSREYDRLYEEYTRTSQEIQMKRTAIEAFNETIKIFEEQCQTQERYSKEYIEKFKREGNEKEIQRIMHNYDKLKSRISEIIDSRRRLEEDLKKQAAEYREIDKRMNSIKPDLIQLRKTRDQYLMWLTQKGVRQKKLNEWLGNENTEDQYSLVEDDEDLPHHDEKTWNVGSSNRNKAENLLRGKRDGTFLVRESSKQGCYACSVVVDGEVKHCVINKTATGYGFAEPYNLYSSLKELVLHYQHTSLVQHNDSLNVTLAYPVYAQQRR

relative activity among the four separated stereoisomers (peaks 1-4): most active enantiomer
Compound: CCOc1c(C(C)n2nc(C)c3c(N)ncnc32)cc(Cl)c(F)c1C1CNC(=O)O1 (stereo not shown) [Example 357, 5-{3-[1-(4-amino-3-methyl-1H-pyrazolo[3,4-d]pyrimidin-1-yl)ethyl]-5-chloro-2-ethoxy-6-fluorophenyl}-1,3-oxazolidin-2-one]
